We go through one compound from ChEMBL document CHEMBL3044878, “The interference between metformin treatment and TSH level in euthyroid type 2 diabetic patients” (Med Chem Res, 2013).

Format in all cases: functional, organism-based
Test [1] is filed under the species Homo sapiens. Put plainly: Effect on FT4 level in diabetic obese pateint by ELISA relative to untreated obese insulin-resistant control. (In general: In an ELISA, binding on a coated surface is turned into a signal by an enzyme label.)
The species named for test [2] is Homo sapiens. The test can be described thus: Effect on FT4 level in diabetic non-obese pateint by ELISA relative to untreated obese insulin-resistant control.
The species named for test [3] is Homo sapiens. The test can be described thus: Effect on FT4 level in diabetic obese pateint by ELISA relative to untreated healthy control.
Test [4] is filed under the species Homo sapiens. Put plainly: Effect on FT4 level in diabetic non-obese pateint by ELISA relative to untreated healthy control.
For test [5], the species on record is Homo sapiens. Put plainly: Effect on TSH level in diabetic obese pateint by ELISA relative to untreated healthy control.
The species entered for test [6] is Homo sapiens. Put plainly: Decrease in TSH level in diabetic non-obese pateint by ELISA relative to untreated obese insulin-resistant control.
The species entered for test [7] is Homo sapiens. Put plainly: Effect on TSH level in diabetic non-obese pateint by ELISA relative to untreated healthy control.

Activity calls are given as the source filed them. The calls are words filed in the database; no cut-off is given here.

Regarding `CN(C)C(=N)NC(=N)N`, the outcome in the test listed under Homo sapiens [1], in the test listed under Homo sapiens [2], in the test filed under Homo sapiens [3], in the test listed under Homo sapiens [4], in the test filed under Homo sapiens [5] and in the test filed under Homo sapiens [7] was inactive. The outcome in the test listed under Homo sapiens [6] was Active.
